We go through seven compounds from US20050107611A1, “Pyrazolyl-substituted triazoloquinoxalines” (priority 2001, published 2005).

Test [1] addresses T1, human A3 adenosine receptor (Homo sapiens, UniProt P0DMS8).
T1 construct: expressed in transfected cells; host or cells: CHO cells
T1 sequence (P0DMS8 1-318): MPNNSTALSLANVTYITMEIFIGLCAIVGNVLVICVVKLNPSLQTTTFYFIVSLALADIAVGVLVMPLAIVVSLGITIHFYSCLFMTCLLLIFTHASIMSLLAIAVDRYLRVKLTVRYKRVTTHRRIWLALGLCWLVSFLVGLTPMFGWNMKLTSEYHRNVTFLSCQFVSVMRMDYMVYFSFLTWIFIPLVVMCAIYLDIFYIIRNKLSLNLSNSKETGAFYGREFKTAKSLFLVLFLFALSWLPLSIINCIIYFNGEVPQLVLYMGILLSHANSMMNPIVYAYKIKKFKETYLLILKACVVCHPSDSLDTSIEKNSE
As to the kind of experiment: Receptor binding assay with [3H]PSB-11 on recombinant A3-adenosine receptors expressed in CHO cells. Conditions: for Ki: Table 2, [3H]PSB-11, read-out: A3 K1. The source says: (§1) The data of the biological tests that are cited below results from radioligand-binding assays on A1, A2A, A2B and A3 adenosine receptors (ARs).
(§2) The following selective radioligands are used in the biological tests: • [^3H]CCPA (for A1 ARs) [Klotz et al., Naunyn-Schmiedeberg's Arch. Pharmacol., 340, 679 (1989)] • [^3]MSX-2 (for A2A ARs) [Muiller et al., Eur. J. Pharm. Sci., 10, 259 (2000)] • [^3H]ZM241385 (for A2B ARs_[X.-D. Ji, K. A. Jacobson, Drug Des. Discov., 16, 217 (1999)] • [^3H]PSB-11 (new antagonistic radioligand for human A3 ARs) [M. Dieckmann, M. Thorand, V. Ozola, C. E. Muiller, in Vorbereitung [Preparation] (2001)]. • [^125I]AB-MECA (for rat-A3 ARs) [Olah et al., Mol. Pharmacol., 45, 978 (1994)]. Description of the Assays That are Used for Testing Substances Production of Tissue Preparations Made from Rat Brains
For CHO cells, which express the A3-adenosine receptor, the operating steps are also performed analogously to the A1-adenosine receptor-CHO culture. The medium is used as described above.
Preparation of Recombinant Human A3-Adenosine Receptors Expressed in CHO Cells for A3-Adenosine Receptor Binding Studies
2 to 3 ml of ice-cold TRIS buffer (pH 7.4; 50 mmol) is added to the tissue culture dishes. The cells are scraped off from the plates with a rubber scraper and collected in a beaker. The plates are rinsed with another 1 to 2 ml of TRIS buffer (pH 7.4; 50 mmol). The cell suspension is dispersed into centrifuge tubes and centrifuged at 4° C., 35,000 g, for 20 minutes. The supernatant is discarded, and the pellet is resuspended in TRIS buffer (pH 7.4; 50 mmol) with the homogenizer at the highest level for 3 to 4 seconds. This suspension is again centrifuged. The washing process is repeated another time. The pellet that is obtained is resuspended with the least possible TRIS buffer (pH 7.4; 50 mmol) and delivered in aliquots (0.25 ml and 0.5 ml).
(§3) The test substances are dissolved in DMSO to 10 mmol. The final concentration of DMSO in the assay is 2.5% for A1- and A2A-adenosine receptor assays and 1-2% for A2B- and A3-assays. Dilution series of the test substances are produced from the stock solution. Five to eight different test concentrations, which comprise 3 orders of magnitude (e.g., 1 nm to 1000 nm), are used.
Receptor Binding Assay with [^3H]PSB-11 on Recombinant A3-Adenosine Receptors Expressed in CHO Cells:
The assay is performed with […] according to the instructions under the receptor-binding assays with consideration for the above-listed amounts and solutions. The dilution in the assay is 1:50. The DMSO content is 2% here. The incubation at 23° C. in the oscillating water bath lasts for 45 minutes.
(§4) The mean value is calculated from three independent experiments. IC50 and K, values are obtained from the Cheng-Prusoff equation, the concentration and the KD value of the radioligand. For calculation, the program GraphPadPrism™, Version 3.0 (GraphPad, San Diego, Calif., USA), was used.

The target of test [2] is A2A adenosine receptor (Rattus norvegicus, UniProt P30543). As to the kind of experiment: Receptor binding assay with [3H]MSX-2 on A2A-adenosine receptors. The settings on record: for Ki: Table 2, [3H]MSX-2, read-out: A2A K1. Also noted: tissue Pel Freez Company (Rogers, Ark., USA); host or cells: rat brain striatum membranes.
Excerpt: as §1, §2
The cell decomposing of the cerebral cortex is carried out with a glass-Teflon homogenizer (stages 5-6, 10 seconds) in 0.32 M saccharose solution. The membranes are purified over various centrifuging steps. With centrifuging at 600 g, 4° C., for 10 minutes, a large amount of cell debris is separated via the P1 fraction, and the supernatant (P2 fraction) is further worked up: in the subsequent three centrifuging steps (35,000 g; 4° C.; 60 minutes), a pellet is produced that is resuspended in 50 mmol of TRIS buffer, pH 7.4 with the Ultraturrax (stages 3-4, 3 seconds); the respective supernatant is discarded. The striata are added to cold TRIS buffer, homogenized with the Ultraturrax in stages 3 to 4-(3 seconds) and then centrifuged at 35,000 g, 4° C., for 20 minutes. The supernatant is discarded, and the pellet is resuspended in 50 mmol of TRIS buffer (50 mmol, pH 7.4). The washing process is repeated twice more. The membrane preparations are stored at −80° C. and are held for several months. The cerebral cortex membrane preparation is used for A1-radioligand binding studies, and the striatum is used for A2A-radiologiand binding studies.
as §3
Receptor Binding Assay with [^3H]MSX-2 on A2A-Adenosine Receptors:
• 25 μl of DMSO, NECA (800 μmol) or test substance dilutions • 775 μl of TRIS buffer (for production, see above) • 100 μl of [^3H]MSX-2 (final concentration 1 nmol; KD value 8 nmol) • 100 μl of rat-striatum-membrane preparation or preparation of CHO cells, which express the human A2A receptor, incubated with 0.12 IE adenosine-deaminase (protein concentration: 25-75 μg/ml) • 1000 μl of final volume
The assay is performed according to the instructions of the receptor-binding assay with [^3H]CCPA with consideration of the amounts and solutions that are listed above. The incubation time is 30 minutes at 23° C. in an oscillating water bath. The glass fiber filter is introduced 30 minutes before use in 0.5% PEI solution.
as §4

A value given as a limit tells only on which side of the number the result lay.

Sequence of A2A adenosine receptor (P30543 whole entry): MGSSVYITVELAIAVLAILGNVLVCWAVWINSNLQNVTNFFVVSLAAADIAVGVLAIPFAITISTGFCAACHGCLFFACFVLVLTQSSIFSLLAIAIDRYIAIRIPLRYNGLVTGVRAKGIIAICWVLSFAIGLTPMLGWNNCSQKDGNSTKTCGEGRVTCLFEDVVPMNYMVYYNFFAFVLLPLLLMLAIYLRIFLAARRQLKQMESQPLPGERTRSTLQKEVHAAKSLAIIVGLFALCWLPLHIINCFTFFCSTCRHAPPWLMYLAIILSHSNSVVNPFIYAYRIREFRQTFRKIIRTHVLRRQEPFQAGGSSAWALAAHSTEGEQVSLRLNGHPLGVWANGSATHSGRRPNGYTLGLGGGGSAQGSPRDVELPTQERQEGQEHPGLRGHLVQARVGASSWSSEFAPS

With `Clc1cc(-c2nc3ccccc3n3nnnc23)n[nH]1` [Y = N, R5 = H, R6 = Cl, 4-[3(5)-Chloro-1H-pyrazol-5(3)-yl]tetrazolo[1,5-a]quinoxaline], the “A3 % inhib. @ 1 μmol” value in test [1] is listed as “(53%)”. In test [2], the Ki was found to be 6130 nM.
Regarding `Clc1cc(-c2nc3ccccc3n3cnnc23)[nH]n1` [Y = C—H, R5 = H, R6 = Cl], the Ki in test [1] was 142 nM; in test [2], above 10000 nM. Also, in test [2], the “A2A % inhib. @ 10 μmol” value is listed as “(21%)”.
Regarding `Clc1cc(-c2nc3ccccc3n3c(-c4ccoc4)nnc23)n[nH]1` [Y = C-(3-Furyl), R5 = H, R6 = Cl], in test [1], the “A3 % inhib. @ 1 μmol” value is “(31%)” and the Ki is above 1000 nM. Also, the Ki in test [2] turned out to be 1260 nM.
On to `Cn1nc(-c2nc3ccccc3n3c(Cc4cccs4)nnc23)cc1Cl` [Y = C—CH2-(2-Thienyl), R5 = CH3, R6 = Cl, 4-(5-Chloro-1H-1-methyl-pyrazol-3-yl)-1-(2-thienylmethyl)-[1,2,4]triazolo[4,3-a]-quinoxaline], for which the values for the Ki in test [1] and in test [2] were 86 nM and 8610 nM, respectively.
Regarding `COc1ccc2c(c1)nc(-c1cc(Cl)[nH]n1)c1nncn12` [Y = C—H, R3 = OCH3, R5 = H, R6 = Cl, 4-[3(5)-Chloro-1H-pyrazol-5(3)-yl]-7-methoxy-[1,2,4]triazolo[4,3-a]-quinoxaline], in test [1], the Ki came to 372 nM. For the same compound, in test [2], the “A2A % inhib. @ 10 μmol” value is on record as “(1%)” and the Ki is above 10000 nM.
`COc1ccc2c(c1)nc(-c1cc(Cl)n[nH]1)c1nnc(Cc3cccs3)n12` [4-[3(5)-Chloro-1H-pyrazol-5(3)-yl]-7-methoxy-1-(2-thienylmethyl)-[1,2,4]triazolo[4,3-a]-quinoxaline]: the Ki in test [1] is 1.9 nM; in test [2], 4960 nM.
Take “4-(chloropyrazolyl)-1-(3-phenylpropyl)-[1,2,4-]triazolo[4,3-a]quinoxaline [Y = C—CH2—CH2—CH2-Ph, R5 = H, R6 = Cl]”: in test [1], the “A3 % inhib. @ 1 μmol” value was “(32%)” and the Ki was above 1000 nM. Moreover, in test [2], the “A2A % inhib. @ 10 μmol” value is reported as “(6%)” and the Ki is above 10000 nM.
